In ChEMBL document CHEMBL4033774, “Class I HDAC Inhibitors: Potential New Epigenetic Therapeutics for Alcohol Use Disorder (AUD)” (J Med Chem, 2018):
Values belong to the compound of their own block, whether it stands above or below them.

Assays:
[1] = Lipophilicity, log P of compound by LC-MS/MS analysis; assay type: physicochemical; conditions: octanol/water
[2] = Drug uptake in baboon hippocampus after 20 mins by LC-MS/MS analysis; assay type: ADME, tissue-based; conditions: papio anubis, in vivo
Histone deacetylase 7 = biological target: T1, Histone deacetylase 7 (Homo sapiens, UniProt Q8WUI4); assay: Inhibition of human recombinant N-terminal GST-tagged HDAC7 expressed in baculovirus infected insect cells preincubated for 2 hrs followed by Fluor-de-Lys substrate addition measured after 30 mins by fluorescence assay; assay type: cell-based
T1 sequence (Q8WUI4 whole entry): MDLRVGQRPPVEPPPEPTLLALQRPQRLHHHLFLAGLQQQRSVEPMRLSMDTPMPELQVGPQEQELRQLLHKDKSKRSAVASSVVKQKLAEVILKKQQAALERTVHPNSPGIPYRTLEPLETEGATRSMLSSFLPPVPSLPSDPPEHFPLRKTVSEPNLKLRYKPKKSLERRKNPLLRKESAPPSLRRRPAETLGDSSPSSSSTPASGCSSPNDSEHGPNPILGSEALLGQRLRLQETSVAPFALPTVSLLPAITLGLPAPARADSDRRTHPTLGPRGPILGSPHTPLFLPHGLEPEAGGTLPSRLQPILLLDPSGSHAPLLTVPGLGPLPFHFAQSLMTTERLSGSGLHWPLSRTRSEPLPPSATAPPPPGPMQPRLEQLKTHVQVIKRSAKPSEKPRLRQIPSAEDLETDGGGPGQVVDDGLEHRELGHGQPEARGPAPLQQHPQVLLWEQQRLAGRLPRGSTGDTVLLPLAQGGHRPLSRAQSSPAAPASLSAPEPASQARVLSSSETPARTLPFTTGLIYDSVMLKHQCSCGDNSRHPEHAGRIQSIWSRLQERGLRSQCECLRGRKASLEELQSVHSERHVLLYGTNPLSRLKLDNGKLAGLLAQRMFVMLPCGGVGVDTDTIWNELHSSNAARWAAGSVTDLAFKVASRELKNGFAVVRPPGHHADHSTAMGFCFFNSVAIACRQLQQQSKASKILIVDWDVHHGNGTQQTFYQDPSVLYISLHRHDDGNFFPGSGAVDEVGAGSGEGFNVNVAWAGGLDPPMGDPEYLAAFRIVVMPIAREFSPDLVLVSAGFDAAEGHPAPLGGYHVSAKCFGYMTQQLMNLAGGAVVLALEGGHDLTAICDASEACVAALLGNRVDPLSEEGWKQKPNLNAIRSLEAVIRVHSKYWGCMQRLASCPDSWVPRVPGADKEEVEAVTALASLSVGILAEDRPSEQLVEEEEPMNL

Histone deacetylase 5 = Histone deacetylase 5 (Homo sapiens, UniProt Q9UQL6); assay: Inhibition of human recombinant C-terminal His-tagged HDAC5 expressed in baculovirus infected insect cells preincubated for 2 hrs followed by Fluor-de-Lys substrate addition measured after 30 mins by fluorescence assay; assay type: cell-based
Histone deacetylase 4 [3] = biological target: T2, Histone deacetylase 4 (Homo sapiens, UniProt P56524); assay: Inhibition of human recombinant N-terminal GST-tagged/C-terminal His-tagged HDAC4 expressed in baculovirus infected insect cells preincubated for 2 hrs followed by Fluor-de-Lys substrate addition measured after 30 mins by fluorescence assay; assay type: cell-based
T2 sequence (P56524 whole entry): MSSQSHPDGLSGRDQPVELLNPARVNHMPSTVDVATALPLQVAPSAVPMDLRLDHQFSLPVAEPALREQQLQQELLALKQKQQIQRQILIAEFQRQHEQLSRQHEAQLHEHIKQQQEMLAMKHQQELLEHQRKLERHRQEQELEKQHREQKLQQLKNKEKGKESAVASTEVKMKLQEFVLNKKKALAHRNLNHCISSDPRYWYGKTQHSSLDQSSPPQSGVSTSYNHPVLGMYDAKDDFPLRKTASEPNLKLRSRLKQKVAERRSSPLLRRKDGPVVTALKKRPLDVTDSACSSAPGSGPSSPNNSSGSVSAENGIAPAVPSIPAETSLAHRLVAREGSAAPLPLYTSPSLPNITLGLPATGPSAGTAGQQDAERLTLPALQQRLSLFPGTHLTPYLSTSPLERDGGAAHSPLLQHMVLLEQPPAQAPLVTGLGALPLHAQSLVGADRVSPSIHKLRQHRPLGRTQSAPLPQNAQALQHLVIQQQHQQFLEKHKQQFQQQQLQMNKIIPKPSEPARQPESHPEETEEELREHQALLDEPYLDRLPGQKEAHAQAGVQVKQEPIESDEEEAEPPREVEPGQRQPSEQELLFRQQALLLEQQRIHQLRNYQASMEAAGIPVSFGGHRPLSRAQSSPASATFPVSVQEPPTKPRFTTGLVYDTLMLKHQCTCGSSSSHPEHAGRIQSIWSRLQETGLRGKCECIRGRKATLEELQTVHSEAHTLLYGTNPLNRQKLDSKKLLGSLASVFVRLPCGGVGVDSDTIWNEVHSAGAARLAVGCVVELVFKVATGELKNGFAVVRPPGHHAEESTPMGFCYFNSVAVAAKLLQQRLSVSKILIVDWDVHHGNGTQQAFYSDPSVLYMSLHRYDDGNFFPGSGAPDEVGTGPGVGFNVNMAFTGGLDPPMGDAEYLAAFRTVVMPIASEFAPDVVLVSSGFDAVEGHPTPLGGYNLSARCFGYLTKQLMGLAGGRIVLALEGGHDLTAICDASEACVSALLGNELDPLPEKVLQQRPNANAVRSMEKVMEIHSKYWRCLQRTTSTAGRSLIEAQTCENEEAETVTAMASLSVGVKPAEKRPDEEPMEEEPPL

[4] = biological target: Histone deacetylase 3/Nuclear receptor corepressor 2 (HDAC3/NCoR2) (Homo sapiens, UniProt O15379); assay: Inhibition of human full length C-terminal His-tagged HDAC3/N-terminal GST-tagged human NCOR2 co-expressed in baculovirus infected Sf9 insect cells preincubated for 2 hrs followed by Fluor-de-Lys substrate addition measured after 30 mins by fluorescence assay; assay type: cell-based
Histone deacetylase 3/Nuclear receptor corepressor 2 (HDAC3/NCoR2), sequence (O15379 whole entry): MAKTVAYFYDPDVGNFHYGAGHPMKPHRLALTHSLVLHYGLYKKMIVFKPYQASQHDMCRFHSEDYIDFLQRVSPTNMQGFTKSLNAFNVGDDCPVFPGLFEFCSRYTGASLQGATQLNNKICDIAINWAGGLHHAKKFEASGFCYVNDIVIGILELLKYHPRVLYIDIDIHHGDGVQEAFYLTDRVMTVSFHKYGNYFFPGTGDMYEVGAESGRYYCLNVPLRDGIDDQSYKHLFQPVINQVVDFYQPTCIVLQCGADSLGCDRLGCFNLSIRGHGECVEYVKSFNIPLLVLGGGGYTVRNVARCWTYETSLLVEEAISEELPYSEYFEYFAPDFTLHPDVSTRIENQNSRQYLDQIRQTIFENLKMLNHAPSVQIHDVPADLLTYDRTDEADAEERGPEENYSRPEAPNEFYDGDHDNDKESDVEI
Histone deacetylase 3/Nuclear receptor corepressor 2 (HDAC3/NCoR2), sequence (Q9Y618 whole entry, further chain): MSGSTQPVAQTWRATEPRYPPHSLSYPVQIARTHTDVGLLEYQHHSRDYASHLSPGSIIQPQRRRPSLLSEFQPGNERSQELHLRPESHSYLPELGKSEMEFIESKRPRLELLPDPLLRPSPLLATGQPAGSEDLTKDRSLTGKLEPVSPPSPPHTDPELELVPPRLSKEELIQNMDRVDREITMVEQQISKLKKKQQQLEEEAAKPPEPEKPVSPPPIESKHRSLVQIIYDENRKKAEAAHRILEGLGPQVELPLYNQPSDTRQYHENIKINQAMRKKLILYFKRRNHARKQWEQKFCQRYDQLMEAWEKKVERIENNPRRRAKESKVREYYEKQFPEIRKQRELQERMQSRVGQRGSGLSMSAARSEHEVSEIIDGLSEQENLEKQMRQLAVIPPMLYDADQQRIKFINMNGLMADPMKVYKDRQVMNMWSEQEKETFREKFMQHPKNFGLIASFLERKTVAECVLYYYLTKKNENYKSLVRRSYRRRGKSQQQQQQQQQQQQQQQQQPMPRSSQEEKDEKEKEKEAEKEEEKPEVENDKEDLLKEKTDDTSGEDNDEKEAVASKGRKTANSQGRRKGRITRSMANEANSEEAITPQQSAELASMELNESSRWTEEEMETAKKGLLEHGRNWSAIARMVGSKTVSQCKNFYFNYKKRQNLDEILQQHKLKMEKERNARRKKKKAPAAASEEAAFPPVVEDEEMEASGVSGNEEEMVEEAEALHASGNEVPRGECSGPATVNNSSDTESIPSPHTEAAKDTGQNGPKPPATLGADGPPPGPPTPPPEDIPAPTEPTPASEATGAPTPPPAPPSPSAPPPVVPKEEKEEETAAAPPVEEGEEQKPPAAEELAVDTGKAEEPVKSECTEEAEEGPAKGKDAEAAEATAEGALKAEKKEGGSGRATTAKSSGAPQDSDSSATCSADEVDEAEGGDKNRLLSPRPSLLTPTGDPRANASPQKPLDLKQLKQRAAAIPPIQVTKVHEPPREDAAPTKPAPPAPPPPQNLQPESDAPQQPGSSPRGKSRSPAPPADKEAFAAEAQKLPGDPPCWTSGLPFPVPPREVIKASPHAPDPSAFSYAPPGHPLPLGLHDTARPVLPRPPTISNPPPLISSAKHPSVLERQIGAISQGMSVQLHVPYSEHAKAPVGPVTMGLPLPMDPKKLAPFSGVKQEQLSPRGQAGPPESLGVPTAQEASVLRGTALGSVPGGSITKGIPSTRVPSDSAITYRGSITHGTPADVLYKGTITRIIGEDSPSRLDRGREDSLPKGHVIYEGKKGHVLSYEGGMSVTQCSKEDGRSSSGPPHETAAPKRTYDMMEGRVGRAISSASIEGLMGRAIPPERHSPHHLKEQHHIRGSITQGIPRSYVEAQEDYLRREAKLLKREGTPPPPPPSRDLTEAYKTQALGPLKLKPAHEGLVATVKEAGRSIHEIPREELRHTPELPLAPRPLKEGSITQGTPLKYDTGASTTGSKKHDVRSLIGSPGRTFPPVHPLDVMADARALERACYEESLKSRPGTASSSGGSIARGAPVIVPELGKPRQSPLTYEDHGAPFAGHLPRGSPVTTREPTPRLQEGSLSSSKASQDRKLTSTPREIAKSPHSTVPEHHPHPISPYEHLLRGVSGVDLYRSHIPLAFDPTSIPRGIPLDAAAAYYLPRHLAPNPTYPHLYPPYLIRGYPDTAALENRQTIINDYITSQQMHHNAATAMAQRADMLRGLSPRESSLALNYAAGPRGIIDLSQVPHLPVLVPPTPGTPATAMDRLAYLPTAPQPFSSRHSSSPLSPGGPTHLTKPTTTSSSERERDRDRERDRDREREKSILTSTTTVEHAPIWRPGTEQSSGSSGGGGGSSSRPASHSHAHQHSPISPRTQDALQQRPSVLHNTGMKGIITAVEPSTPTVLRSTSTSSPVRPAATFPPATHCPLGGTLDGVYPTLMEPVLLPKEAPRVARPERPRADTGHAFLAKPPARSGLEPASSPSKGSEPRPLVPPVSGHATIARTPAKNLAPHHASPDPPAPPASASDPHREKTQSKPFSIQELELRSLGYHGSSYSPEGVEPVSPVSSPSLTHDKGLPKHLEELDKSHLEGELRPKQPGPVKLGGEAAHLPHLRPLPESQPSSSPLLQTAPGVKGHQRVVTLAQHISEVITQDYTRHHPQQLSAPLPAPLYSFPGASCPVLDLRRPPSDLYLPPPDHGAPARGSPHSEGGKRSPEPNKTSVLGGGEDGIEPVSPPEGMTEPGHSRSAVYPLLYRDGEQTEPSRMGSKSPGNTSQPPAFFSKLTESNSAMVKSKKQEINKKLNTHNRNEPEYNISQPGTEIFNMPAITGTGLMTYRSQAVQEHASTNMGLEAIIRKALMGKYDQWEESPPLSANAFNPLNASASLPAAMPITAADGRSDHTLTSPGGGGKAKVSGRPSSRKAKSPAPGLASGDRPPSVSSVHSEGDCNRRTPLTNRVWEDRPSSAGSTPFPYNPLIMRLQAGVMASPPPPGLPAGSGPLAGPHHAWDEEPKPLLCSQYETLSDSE

Histone deacetylase 1 [5] = biological target: T3, Histone deacetylase 1 (Homo sapiens, UniProt Q13547); assay: Inhibition of human full length C-terminal His/FLAG-tagged HDAC1 expressed in baculovirus infected Sf9 insect cells preincubated for 2 hrs followed by Fluor-de-Lys substrate addition measured after 30 mins by fluorescence assay; assay type: cell-based
T3 sequence (Q13547 whole entry): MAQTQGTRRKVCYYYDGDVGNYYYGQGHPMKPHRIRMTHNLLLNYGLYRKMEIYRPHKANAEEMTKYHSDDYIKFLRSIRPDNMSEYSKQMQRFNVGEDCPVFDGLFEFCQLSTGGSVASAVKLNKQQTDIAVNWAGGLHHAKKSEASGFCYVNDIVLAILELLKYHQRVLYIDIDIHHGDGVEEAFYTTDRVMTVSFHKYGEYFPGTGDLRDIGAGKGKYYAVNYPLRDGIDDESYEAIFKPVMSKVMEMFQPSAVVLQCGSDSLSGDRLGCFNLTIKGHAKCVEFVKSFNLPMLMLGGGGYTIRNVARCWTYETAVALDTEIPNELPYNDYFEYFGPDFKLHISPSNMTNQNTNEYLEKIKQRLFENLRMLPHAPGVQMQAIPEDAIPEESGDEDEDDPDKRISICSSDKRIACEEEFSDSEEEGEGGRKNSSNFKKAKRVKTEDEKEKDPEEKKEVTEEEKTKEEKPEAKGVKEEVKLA

Histone deacetylase 8 = biological target: T4, Histone deacetylase 8 (Homo sapiens, UniProt Q9BY41); assay: Inhibition of HDAC8 (unknown origin) preincubated for 2 hrs followed by Fluor-de-Lys substrate addition measured after 30 mins by fluorescence assay
T4 sequence (Q9BY41 whole entry): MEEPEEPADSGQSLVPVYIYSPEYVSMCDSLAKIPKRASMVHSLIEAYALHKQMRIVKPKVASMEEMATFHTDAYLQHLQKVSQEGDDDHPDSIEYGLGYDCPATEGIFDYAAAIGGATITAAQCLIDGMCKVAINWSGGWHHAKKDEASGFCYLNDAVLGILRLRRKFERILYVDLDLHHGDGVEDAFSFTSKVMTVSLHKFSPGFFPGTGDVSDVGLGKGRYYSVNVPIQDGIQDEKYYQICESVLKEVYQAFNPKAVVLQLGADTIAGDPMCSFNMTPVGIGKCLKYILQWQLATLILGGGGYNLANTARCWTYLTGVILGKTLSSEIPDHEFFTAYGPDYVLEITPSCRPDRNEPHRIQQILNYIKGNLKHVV

Histone deacetylase 2 [6] = biological target: T5, Histone deacetylase 2 (Homo sapiens, UniProt Q92769); assay: Inhibition of human full length C-terminal FLAG-tagged HDAC2 expressed in baculovirus infected Sf9 insect cells preincubated for 2 hrs followed by Fluor-de-Lys substrate addition measured after 30 mins by fluorescence assay; assay type: cell-based
T5 sequence (Q92769 whole entry): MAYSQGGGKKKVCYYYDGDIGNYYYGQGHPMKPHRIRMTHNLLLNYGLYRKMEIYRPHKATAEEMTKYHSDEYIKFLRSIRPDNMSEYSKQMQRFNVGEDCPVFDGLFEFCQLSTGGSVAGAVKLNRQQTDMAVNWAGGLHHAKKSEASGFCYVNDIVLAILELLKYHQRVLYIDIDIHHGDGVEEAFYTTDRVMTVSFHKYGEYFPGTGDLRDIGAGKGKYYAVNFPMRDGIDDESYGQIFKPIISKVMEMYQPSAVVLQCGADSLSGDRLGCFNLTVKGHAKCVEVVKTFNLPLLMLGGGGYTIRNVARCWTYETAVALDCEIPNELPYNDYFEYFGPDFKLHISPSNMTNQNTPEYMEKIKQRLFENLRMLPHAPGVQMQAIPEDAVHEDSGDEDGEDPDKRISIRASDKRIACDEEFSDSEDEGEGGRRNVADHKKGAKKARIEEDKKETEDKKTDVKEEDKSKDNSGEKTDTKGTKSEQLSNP

Histone deacetylase 3 = Histone deacetylase 3 (Homo sapiens, UniProt O15379); assay: Inhibition of HDAC3 (unknown origin)
Histone deacetylase 3, sequence (O15379 whole entry): as the sequence (O15379 whole entry) above

Histone deacetylase 1 [7] = biological target: T3, Histone deacetylase 1; assay: Inhibition of HDAC1 (unknown origin)
Histone deacetylase 4 [8] = biological target: T2, Histone deacetylase 4; assay: Inhibition of HDAC4 (unknown origin)
[9] = biological target: T6, Polyamine deacetylase HDAC10 (Homo sapiens, UniProt Q969S8); assay: Inhibition of HDAC10 (unknown origin)
T6 sequence (Q969S8 whole entry): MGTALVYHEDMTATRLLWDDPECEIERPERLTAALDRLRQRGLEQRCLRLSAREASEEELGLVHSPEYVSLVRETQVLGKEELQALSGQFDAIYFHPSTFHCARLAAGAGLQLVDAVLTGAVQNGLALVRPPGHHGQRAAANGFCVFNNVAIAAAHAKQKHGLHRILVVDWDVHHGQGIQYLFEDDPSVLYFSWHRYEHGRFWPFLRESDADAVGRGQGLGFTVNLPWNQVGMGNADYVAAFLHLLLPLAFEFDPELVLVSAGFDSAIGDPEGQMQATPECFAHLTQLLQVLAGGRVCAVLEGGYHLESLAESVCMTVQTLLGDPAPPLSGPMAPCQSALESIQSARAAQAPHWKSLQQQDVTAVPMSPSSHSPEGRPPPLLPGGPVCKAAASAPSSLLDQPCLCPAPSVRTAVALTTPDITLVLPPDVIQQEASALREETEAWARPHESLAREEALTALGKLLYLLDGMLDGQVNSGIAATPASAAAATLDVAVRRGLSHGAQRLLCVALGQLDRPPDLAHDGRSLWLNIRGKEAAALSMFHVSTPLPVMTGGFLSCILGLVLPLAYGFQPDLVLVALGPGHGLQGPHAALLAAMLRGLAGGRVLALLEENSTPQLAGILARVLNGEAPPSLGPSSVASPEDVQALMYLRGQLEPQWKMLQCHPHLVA

[10] = biological target: T7, Protein deacetylase HDAC6 (Homo sapiens, UniProt Q9UBN7); assay: Inhibition of HDAC6 (unknown origin)
T7 sequence (Q9UBN7 whole entry): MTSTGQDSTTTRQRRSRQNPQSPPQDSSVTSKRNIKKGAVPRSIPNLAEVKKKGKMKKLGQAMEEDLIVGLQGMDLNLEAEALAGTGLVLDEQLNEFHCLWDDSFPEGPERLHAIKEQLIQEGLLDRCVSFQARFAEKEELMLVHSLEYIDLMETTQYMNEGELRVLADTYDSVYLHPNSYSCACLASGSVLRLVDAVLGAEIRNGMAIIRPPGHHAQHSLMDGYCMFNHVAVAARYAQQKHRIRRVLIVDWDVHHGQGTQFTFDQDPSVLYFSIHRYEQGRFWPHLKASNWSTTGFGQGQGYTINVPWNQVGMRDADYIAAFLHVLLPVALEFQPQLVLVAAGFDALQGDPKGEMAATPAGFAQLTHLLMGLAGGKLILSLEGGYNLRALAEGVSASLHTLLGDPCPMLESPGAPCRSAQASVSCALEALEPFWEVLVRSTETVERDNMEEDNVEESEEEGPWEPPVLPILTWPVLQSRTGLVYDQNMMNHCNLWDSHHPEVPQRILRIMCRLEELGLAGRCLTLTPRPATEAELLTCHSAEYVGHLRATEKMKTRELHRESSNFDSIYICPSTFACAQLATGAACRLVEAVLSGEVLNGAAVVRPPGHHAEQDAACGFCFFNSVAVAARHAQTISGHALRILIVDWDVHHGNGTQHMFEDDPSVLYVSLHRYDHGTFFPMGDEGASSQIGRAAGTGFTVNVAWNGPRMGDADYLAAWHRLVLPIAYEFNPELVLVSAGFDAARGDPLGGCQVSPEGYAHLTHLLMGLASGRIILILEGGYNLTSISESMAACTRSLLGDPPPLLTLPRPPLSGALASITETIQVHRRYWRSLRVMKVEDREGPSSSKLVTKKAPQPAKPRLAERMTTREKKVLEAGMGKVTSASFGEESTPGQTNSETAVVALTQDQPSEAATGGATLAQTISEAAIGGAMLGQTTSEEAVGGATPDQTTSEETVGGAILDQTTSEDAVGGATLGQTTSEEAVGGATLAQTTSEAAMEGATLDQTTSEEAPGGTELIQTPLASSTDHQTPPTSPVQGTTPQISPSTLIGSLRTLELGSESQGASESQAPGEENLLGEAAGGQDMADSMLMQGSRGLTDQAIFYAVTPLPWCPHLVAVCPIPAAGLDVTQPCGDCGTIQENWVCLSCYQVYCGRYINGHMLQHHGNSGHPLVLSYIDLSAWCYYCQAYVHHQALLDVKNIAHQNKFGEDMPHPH

Histone deacetylase 2 [11] = biological target: T5, Histone deacetylase 2; assay: Inhibition of HDAC2 (unknown origin)
Histone deacetylase 11 = biological target: T8, Histone deacetylase 11 (Homo sapiens, UniProt Q96DB2); assay: Inhibition of HDAC11 (unknown origin)
T8 sequence (Q96DB2 whole entry): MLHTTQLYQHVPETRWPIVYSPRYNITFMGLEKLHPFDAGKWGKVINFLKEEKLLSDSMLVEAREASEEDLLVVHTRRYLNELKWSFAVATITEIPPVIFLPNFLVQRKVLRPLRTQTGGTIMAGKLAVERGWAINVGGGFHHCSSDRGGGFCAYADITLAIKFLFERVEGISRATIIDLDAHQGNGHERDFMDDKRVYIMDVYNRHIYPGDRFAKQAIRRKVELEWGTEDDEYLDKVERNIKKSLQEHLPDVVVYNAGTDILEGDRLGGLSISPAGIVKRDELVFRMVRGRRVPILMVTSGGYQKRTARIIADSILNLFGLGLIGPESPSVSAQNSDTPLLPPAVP

logP [1]: 2.61 | Drug uptake [2]: 30%
Structure (SMILES): COc1ccc(Cn2ccc3ccc(C(=O)NO)cc32)cc1

IC50 (Histone deacetylase 7): > 180 µM | IC50 (Histone deacetylase 5): > 180 µM | IC50 (Histone deacetylase 4 [3]): > 180 µM | IC50 [4]: 0.069 µM | IC50 (Histone deacetylase 1 [5]): 0.199 µM | IC50 (Histone deacetylase 8): 5 µM | IC50 (Histone deacetylase 2 [6]): 1.59 µM
Structure (SMILES): Nc1ccccc1NC(=O)CCCCCC(=O)Nc1ccccc1

IC50 (Histone deacetylase 3): 3 µM | IC50 (Histone deacetylase 1 [7]): 3 µM | IC50 (Histone deacetylase 4 [8]): > 20 µM | IC50 [9]: > 20 µM | IC50 [10]: > 20 µM | IC50 (Histone deacetylase 2 [11]): > 20 µM | IC50 (Histone deacetylase 11): > 20 µM
Structure (SMILES): COc1ccc(/C=C/C(=O)NO)c(-c2ccc(-c3ccccc3)cc2)c1
